Assay results as given in ChEMBL document CHEMBL4043305, “Structure-Activity Relationship Study of Cyclic Pentapeptide Ligands for Atypical Chemokine Receptor 3 (ACKR3)” (J Med Chem, 2018).

Columns and labels:
[1] = target: C-X-C chemokine receptor type 4 (Homo sapiens, UniProt P61073); assay: Displacement of [125I]SDF-1alpha from CXCR4 (unknown origin) expressed in HEK293 cells after 1 hr by scintillation counting method; format: cell-based
[2] = target: Atypical chemokine receptor 3 (Homo sapiens, UniProt P25106); assay: Displacement of [125I]SDF-1alpha from ACKR3 (unknown origin) expressed in CHO cells after 1 hr by scintillation counting method; format: cell-based
Chain of Atypical chemokine receptor 3 (P25106 whole entry): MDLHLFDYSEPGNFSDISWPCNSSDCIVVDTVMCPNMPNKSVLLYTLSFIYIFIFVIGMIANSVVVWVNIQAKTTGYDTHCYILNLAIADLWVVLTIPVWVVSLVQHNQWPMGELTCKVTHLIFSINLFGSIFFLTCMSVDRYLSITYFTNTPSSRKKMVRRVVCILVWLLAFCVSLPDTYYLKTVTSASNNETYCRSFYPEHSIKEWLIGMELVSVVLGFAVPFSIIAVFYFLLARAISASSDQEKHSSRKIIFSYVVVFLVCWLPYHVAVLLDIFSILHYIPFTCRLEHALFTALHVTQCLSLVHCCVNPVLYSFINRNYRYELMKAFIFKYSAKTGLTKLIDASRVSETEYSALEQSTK

Chain of C-X-C chemokine receptor type 4 (P61073 whole entry): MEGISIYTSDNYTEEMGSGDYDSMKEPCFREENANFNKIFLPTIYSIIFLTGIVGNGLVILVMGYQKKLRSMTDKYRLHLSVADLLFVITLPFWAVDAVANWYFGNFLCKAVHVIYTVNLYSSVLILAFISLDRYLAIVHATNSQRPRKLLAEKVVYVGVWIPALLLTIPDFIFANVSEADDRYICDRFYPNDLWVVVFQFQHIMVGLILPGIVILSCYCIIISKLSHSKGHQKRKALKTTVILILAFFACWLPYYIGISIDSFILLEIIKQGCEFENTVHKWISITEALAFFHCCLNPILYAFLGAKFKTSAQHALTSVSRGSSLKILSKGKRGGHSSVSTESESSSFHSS

IC50 [1]	IC50 [2]	Structure (SMILES)
> 30 µM	2 to 24 µM	CC(C)[C@@H]1NC(=O)[C@@H](Cc2ccc(O)cc2)NC(=O)[C@@H]2CCCN2C(=O)[C@H](Cc2ccc3ccccc3c2)NC(=O)[C@H](CCCNC(=N)N)N(C)C1=O
> 30 µM	2 to 24 µM	CC(C)C[C@@H]1NC(=O)[C@@H](Cc2ccc(O)cc2)NC(=O)[C@@H]2CCCN2C(=O)[C@H](Cc2ccc3ccccc3c2)NC(=O)[C@H](CCCNC(=N)N)N(C)C1=O
> 30 µM	9.5 µM	CN1C(=O)[C@H](CCC(N)=O)NC(=O)[C@@H](Cc2ccc(O)cc2)NC(=O)[C@@H]2CCCN2C(=O)[C@H](Cc2ccc3ccccc3c2)NC(=O)[C@@H]1CCCNC(=N)N
> 30 µM	2 to 24 µM	CN1C(=O)[C@H](Cc2ccc(O)cc2)NC(=O)[C@@H](Cc2ccc(O)cc2)NC(=O)[C@@H]2CCCN2C(=O)[C@H](Cc2ccc3ccccc3c2)NC(=O)[C@@H]1CCCNC(=N)N
> 30 µM	2.6 µM	CN1C(=O)[C@H](CCNC(=N)N)NC(=O)[C@@H](Cc2ccc(O)cc2)NC(=O)[C@@H]2CCCN2C(=O)[C@H](Cc2ccc3ccccc3c2)NC(=O)[C@@H]1CCCNC(=N)N
> 30 µM	2 to 24 µM	CN1C(=O)[C@H](Cc2c[nH]c3ccccc23)NC(=O)[C@@H](Cc2ccc(O)cc2)NC(=O)[C@@H]2CCCN2C(=O)[C@H](Cc2ccc3ccccc3c2)NC(=O)[C@@H]1CCCNC(=N)N
> 30 µM	0.25 µM	CN1C(=O)[C@@H](CS)NC(=O)[C@@H](Cc2ccc(O)cc2)NC(=O)[C@@H]2CCCN2C(=O)[C@H](Cc2ccc3ccccc3c2)NC(=O)[C@@H]1CCCNC(=N)N
10 µM	0.52 µM	CN1C(=O)[C@H](CCCNC(=N)N)NC(=O)[C@@H](Cc2ccc(O)cc2)NC(=O)[C@H](Cc2c[nH]c3ccccc23)N(C)C(=O)[C@H](Cc2ccc3ccccc3c2)NC(=O)[C@@H]1CCCNC(N)=O
> 30 µM	5.8 µM	CN1C(=O)[C@H](CCCNC(=N)N)NC(=O)[C@@H](Cc2ccc(O)cc2)NC(=O)[C@@H]2CCCN2C(=O)[C@H](Cc2ccc3ccccc3c2)NC(=O)[C@@H]1CCC(N)=O
> 30 µM	2 to 24 µM	CN1C(=O)[C@H](Cc2cnc[nH]2)NC(=O)[C@@H](Cc2ccc(O)cc2)NC(=O)[C@@H]2CCCN2C(=O)[C@H](Cc2ccc3ccccc3c2)NC(=O)[C@@H]1CCCNC(=N)N
> 30 µM	0.85 µM	CN1C(=O)[C@H](CCCNC(=N)N)NC(=O)[C@@H](Cc2ccc(O)cc2)NC(=O)[C@H](Cc2c[nH]c3ccccc23)NC(=O)[C@H](Cc2ccc3ccccc3c2)NC(=O)[C@@H]1CCCNC(N)=O
> 30 µM	3.2 µM	CN1C(=O)[C@H](CCCNC(=N)N)NC(=O)[C@@H](Cc2c[nH]c3ccccc23)NC(=O)[C@@H]2CCCN2C(=O)[C@H](Cc2ccc3ccccc3c2)NC(=O)[C@@H]1CCCNC(N)=O

The next lines start with the molecule.

Structure (SMILES)	IC50 [1]	IC50 [2]
CN1C(=O)[C@H](CCCNC(=N)N)NC(=O)[C@@H](Cc2ccc(O)cc2)NC(=O)[C@@H]2Cc3[nH]c4ccccc4c3CN2C(=O)[C@H](Cc2ccc3ccccc3c2)NC(=O)[C@@H]1CCCNC(N)=O	> 30 µM	2.1 µM
CN1C(=O)[C@H](CCCNC(=N)N)NC(=O)[C@@H](Cc2csc3ccccc23)NC(=O)[C@@H]2CCCN2C(=O)[C@H](Cc2ccc3ccccc3c2)NC(=O)[C@@H]1CCCNC(N)=O	> 30 µM	0.54 µM
CN1C(=O)[C@H](CCCNC(=N)N)NC(=O)[C@@H](Cc2ccc(Br)cc2)NC(=O)[C@@H]2CCCN2C(=O)[C@H](Cc2ccc3ccccc3c2)NC(=O)[C@@H]1CCCNC(N)=O	> 30 µM	0.72 µM
CN1C(=O)[C@@H]2CCCN2C(=O)[C@@H](Cc2ccc(O)cc2)NC(=O)[C@@H]2CCCN2C(=O)[C@H](Cc2ccc3ccccc3c2)NC(=O)[C@@H]1CCCNC(=N)N	> 30 µM	2 to 24 µM
CN1C(=O)[C@H](CCCNC(=N)N)NC(=O)[C@@H](Cc2ccc([N+](=O)[O-])cc2)NC(=O)[C@@H]2CCCN2C(=O)[C@H](Cc2ccc3ccccc3c2)NC(=O)[C@@H]1CCCNC(N)=O	> 30 µM	2 µM
CSCC[C@H]1C(=O)N[C@H](Cc2ccc(O)cc2)C(=O)N[C@@H](CCCNC(=N)N)C(=O)N(C)[C@@H](CCCNC(N)=O)C(=O)N[C@@H](Cc2ccc3ccccc3c2)C(=O)N1C	> 30 µM	1.8 µM
CN1C(=O)[C@H](Cc2ccc3ccccc3c2)NC(=O)[C@H](CCCNC(N)=O)N(C)C(=O)[C@H](CCCNC(=N)N)NC(=O)[C@@H](Cc2ccc(O)cc2)NC(=O)[C@H]1CS	21 µM	4.6 µM
CC[C@H](C)[C@H]1C(=O)N[C@H](Cc2ccc(O)cc2)C(=O)N[C@@H](CCCNC(=N)N)C(=O)N(C)[C@@H](CCCNC(N)=O)C(=O)N[C@@H](Cc2ccc3ccccc3c2)C(=O)N1C	> 30 µM	2.2 µM
CC(C)C[C@H]1C(=O)N[C@H](Cc2ccc(O)cc2)C(=O)N[C@@H](CCCNC(=N)N)C(=O)N(C)[C@@H](CCCNC(N)=O)C(=O)N[C@@H](Cc2ccc3ccccc3c2)C(=O)N1C	> 30 µM	1.9 µM
CN1C(=O)[C@H](CCCNC(=N)N)NC(=O)[C@@H](Cc2ccccc2)NC(=O)[C@@H]2CCCN2C(=O)[C@H](Cc2ccc3ccccc3c2)NC(=O)[C@@H]1CCCNC(N)=O	> 30 µM	1.1 µM
CN1C(=O)[C@H](CCCNC(=N)N)NC(=O)[C@@H](Cc2ccc(O)cc2)NC(=O)[C@H](Cc2ccc(O)cc2)N(C)C(=O)[C@H](Cc2ccc3ccccc3c2)NC(=O)[C@@H]1CCCNC(N)=O	> 30 µM	1.8 µM
CN1C(=O)[C@H](CCCNC(=N)N)NC(=O)[C@@H](Cc2ccc(Cl)cc2)NC(=O)[C@@H]2CCCN2C(=O)[C@H](Cc2ccc3ccccc3c2)NC(=O)[C@@H]1CCCNC(N)=O	> 30 µM	0.79 µM
CN1C(=O)[C@H](CCCNC(=N)N)NC(=O)[C@@H](Cc2ccc(O)cc2)NC(=O)[C@@H]2CCCN2C(=O)[C@H](Cc2ccc3ccccc3c2)NC(=O)[C@@H]1CCCCNC(=N)N	> 30 µM	0.56 µM
CN1C(=O)[C@H](CCCNC(=N)N)NC(=O)[C@@H](Cc2ccc(O)cc2)NC(=O)[C@@H]2Cc3ccccc3CN2C(=O)[C@H](Cc2ccc3ccccc3c2)NC(=O)[C@@H]1CCCNC(N)=O	> 30 µM	4.2 µM
CN1C(=O)[C@H](CCCNC(=N)N)NC(=O)[C@@H](Cc2ccc(F)cc2)NC(=O)[C@@H]2CCCN2C(=O)[C@H](Cc2ccc3ccccc3c2)NC(=O)[C@@H]1CCCNC(N)=O	> 30 µM	1.2 µM
CN1C(=O)[C@H](CCCNC(=N)N)NC(=O)[C@@H](Cc2ccc(C(=O)c3ccccc3)cc2)NC(=O)[C@@H]2CCCN2C(=O)[C@H](Cc2ccc3ccccc3c2)NC(=O)[C@@H]1CCCNC(N)=O	> 30 µM	0.72 µM
CN1C(=O)[C@H](CCCNC(=N)N)NC(=O)[C@@H](Cc2ccc(O)cc2)NC(=O)[C@H](Cc2ccccc2)N(C)C(=O)[C@H](Cc2ccc3ccccc3c2)NC(=O)[C@@H]1CCCNC(N)=O	> 30 µM	0.6 µM
CN1C(=O)[C@H](CCCNC(=N)N)NC(=O)[C@@H](CCc2ccccc2)NC(=O)[C@@H]2CCCN2C(=O)[C@H](Cc2ccc3ccccc3c2)NC(=O)[C@@H]1CCCNC(N)=O	> 30 µM	5 µM
CN1C(=O)[C@H](CCCCNC(=N)N)NC(=O)[C@@H](Cc2ccccc2F)NC(=O)[C@H](Cc2cccc3ccccc23)N(C)C(=O)[C@H](Cc2ccc3ccccc3c2)NC(=O)[C@@H]1CCCCNC(=N)N		0.45 µM
